According to ChEMBL document CHEMBL4699435, “Synthesis and biological screening of a library of macamides as TNF-alpha inhibitors” (RSC Med Chem, 2020):
One block for each compound: values may come before it.

Legend:
[1] = Cytotoxicity against human THP-1 cells assessed as reduction in cell viability incubated for 72 hrs by MTT assay; assay type: cell-based
THP-1 [2] = assay: Inhibition of LPS-induced TNFalpha production in human THP-1 cells incubated for 2 hrs followed by LPS stimulation and measured after 12 hrs by ELISA; assay type: functional, cell-based
THP-1 [3] = assay: Potency index, ratio of IC50 of N-(2-hydroxyethyl)-7Z,10Z,13Z,16Z-docosatetraenamide to IC50 of compound for inhibition of LPS-induced TNFalpha production in human THP-1 cells incubated for 2 hrs followed by LPS stimulation and measured after 12 hrs by ELISA; assay type: functional
THP-1 [4] = assay: Potency index, ratio of IC50 of N-oleoyldopamine-macamide to IC50 of compound for inhibition of LPS-induced TNFalpha production in human THP-1 cells incubated for 2 hrs followed by LPS stimulation and measured after 12 hrs by ELISA; assay type: functional
THP-1 [5] = assay: Potency index, ratio of IC50 of C87 to IC50 of compound for inhibition of LPS-induced TNFalpha production in human THP-1 cells incubated for 2 hrs followed by LPS stimulation and measured after 12 hrs by ELISA; assay type: functional

Compound: CCCCCCCC/C=C\CCCCCCCC(=O)NCc1ccccc1
CC50 at 72 h [1]: 97.3 µM | IC50 (THP-1 [2]): 15.2 µM

Compound: CCCCCCCCCCCCCCCC(=O)NCc1ccccc1
CC50 at 72 h [1]: 100 µM | IC50 (THP-1 [2]): 43.1 µM

Compound: CCCCCCCCCCCCCCCCCC(=O)NCc1ccccc1
CC50 at 72 h [1]: 100 µM | IC50 (THP-1 [2]): 16.6 µM

Compound: CCCCC/C=C\C/C=C\CCCCCCCC(=O)NCc1ccccc1
CC50 at 72 h [1]: 98.4 µM | IC50 (THP-1 [2]): 14.2 µM

Compound: CCCCC/C=C\C/C=C\CCCCCCCC(=O)NC(C)(C)c1ccccc1
CC50 at 72 h [1]: 97.3 µM | IC50 (THP-1 [2]): 13.1 µM

Compound: CCCCC/C=C\C/C=C\CCCCCCCC(=O)NNc1ccccc1
CC50 at 72 h [1]: 98.1 µM | IC50 (THP-1 [2]): 8.9 µM

Compound: CCCCC/C=C\C/C=C\CCCCCCCC(=O)NCCc1ccccc1
CC50 at 72 h [1]: 88.2 µM | IC50 (THP-1 [2]): 15.7 µM

Compound: CCCCC/C=C\C/C=C\CCCCCCCC(=O)Nc1ccccc1
CC50 at 72 h [1]: 97.8 µM | IC50 (THP-1 [2]): 21 µM

Compound: CCCCC/C=C\C/C=C\CCCCCCCC(=O)NC(CO)c1ccccc1 (configuration not stated)
CC50 at 72 h [1]: 98 µM | IC50 (THP-1 [2]): 56.8 µM

Compound: CCCCC/C=C\C/C=C\CCCCCCCC(=O)NCCCc1ccccc1
CC50 at 72 h [1]: 80.3 µM | IC50 (THP-1 [2]): 8.3 µM

Compound: CCCCCCCC(=O)NCc1ccccc1
CC50 at 72 h [1]: 100 µM | IC50 (THP-1 [2]): 58.7 µM

Compound: CCCCC/C=C\C/C=C\CCCCCCCC(=O)OCc1ccccc1
CC50 at 72 h [1]: 95.4 µM | IC50 (THP-1 [2]): 6.4 µM

Compound: CCCCC/C=C\C/C=C\CCCCCCCC(=O)NC(CC)c1ccccc1 (configuration not stated)
CC50 at 72 h [1]: 96.5 µM | IC50 (THP-1 [2]): 19.7 µM

Compound: CCCCC/C=C\C/C=C\CCCCCCCC(=O)NC(C)c1ccccc1 (configuration not stated) [MALINAMIDE]
CC50 at 72 h [1]: 95.8 µM | IC50 (THP-1 [2]): 5.2 µM

Compound: CCCCCCCC/C=C\CCCCCCCC(=O)O [OLEIC ACID]
CC50 at 72 h [1]: 100 µM | IC50 (THP-1 [2]): 79 µM

Compound: CCCCCCCC/C=C\CCCCCCCC(=O)NCCc1ccc(O)c(O)c1 [OLEOYL DOPAMINE]
CC50 at 72 h [1]: > 100 µM | IC50 (THP-1 [2]): 3.54 µM

Now those with a lower IC50 (THP-1 [2]), led by results:

IC50 (THP-1 [2]): 1.84 µM
Compound: CCCCC/C=C\C/C=C\CCCCCCCC(=O)NC(C)c1ccc(O)cc1 (configuration not stated)
CC50 at 72 h [1]: 93.5 µM

IC50 (THP-1 [2]): 1.21 µM
Compound: CCCCC/C=C\C/C=C\CCCCCCCC(=O)NC(C)c1ccc(CC)cc1 (configuration not stated)
CC50 at 72 h [1]: 89.8 µM

IC50 (THP-1 [2]): 1 µM
Compound: CCCCC/C=C\C/C=C\CCCCCCCC(=O)NC(C)C(C)(C)C (configuration not stated)
CC50 at 72 h [1]: 94.7 µM

IC50 (THP-1 [2]): 0.78 µM
Compound: CCCCC/C=C\C/C=C\CCCCCCCC(=O)NC(C)C12CC3CC(CC(C3)C1)C2 (configuration not stated)
CC50 at 72 h [1]: 90.9 µM

IC50 (THP-1 [2]): 0.78 µM
Compound: CCCCC/C=C\C/C=C\CCCCCCCC(=O)NC(C)c1ccc(F)cc1 (configuration not stated)
CC50 at 72 h [1]: 82.5 µM

IC50 (THP-1 [2]): 0.74 µM
Compound: CCCCC/C=C\C/C=C\CCCCCCCC(=O)NC(C)c1ccc(Br)cc1 (configuration not stated)
CC50 at 72 h [1]: 81.4 µM

IC50 (THP-1 [2]): 0.71 µM
Compound: CCCCC/C=C\C/C=C\CCCCCCCC(=O)NC(C)C1CCCCC1 (configuration not stated)
CC50 at 72 h [1]: 93.2 µM

IC50 (THP-1 [2]): 0.62 µM
Compound: CCCCC/C=C\C/C=C\CCCCCCCC(=O)NC(C)c1ccc(C)cc1 (configuration not stated)
CC50 at 72 h [1]: 95 µM

IC50 (THP-1 [2]): 0.33 µM
Compound: CCCCC/C=C\C/C=C\CCCCCCCC(=O)NC(C)c1cccc(C)c1 (configuration not stated)
CC50 at 72 h [1]: 91.7 µM

IC50 (THP-1 [2]): 0.08 µM
Compound: CCCCC/C=C\C/C=C\CCCCCCCC(=O)NC(C)c1cc(C)cc(C)c1 (configuration not stated)
CC50 at 72 h [1]: 93.2 µM

IC50 (THP-1 [2]): 0.009 µM
Compound: CCCCC/C=C\C/C=C\CCCCCCCC(=O)OC(C)c1cc(C)cc(C)c1 (configuration not stated)
CC50 at 72 h [1]: 90.1 µM | Ratio IC50 (THP-1 [3]): 200 | Ratio IC50 (THP-1 [4]): 200 | Ratio IC50 (THP-1 [5]): 12
